Data from paper PMC4052314, “New Cyclic Cystine Bridged Peptides from the Sponge Suberites waedoensis” (Marine Drugs, 2014).
Positions of bridges follow the written chain, without caps; N, C: chain ends. Residues, ends and D or L forms follow the SMILES beside them.

How the values were obtained:
A549 cell-line [1] = details: cited from earlier work
Source text: (§1) In our search for bioactive metabolites from sponges found in Korean waters, we recently reported the structural determination of gombamide A, a cyclic thiohexapeptide from Clathria gombawuiensis. […] In our continuing search for bioactive metabolites in sponges, we report here the isolation and structural determinations of chujamides A (1) and B (2), new cyclic cystine bridged peptides from the sponge Suberites waedoensis (Figure 1). These proline- ...

K562 cell-line [2] = details: cited from earlier work
Source text: as §1

Na+/K+-ATPase [3] = details: cited from earlier work
Source text: as §1

K562 cell-line [4] = experiment: Cytotoxicity assay, K562 cell line; assay type: cell-based; details: literature protocols [21],[22]
Method: (§2) The cytotoxicity assays were performed in accord with literature protocols. The Na^+/K^+-ATPase inhibition assay was performed according to the previously described method.

A549 cell-line [5] = experiment: Cytotoxicity assay, A549 cell line; assay type: cell-based; details: literature protocols [21],[22]
Method: as §2

Na+/K+-ATPase [6] = experiment: Na+/K+-ATPase inhibition assay; assay type: biochemical; details: previously described method [23]
Method: as §2

Compound | cytotoxicity against A549 (in words) (A549 cell-line [1]) | cytotoxicity against K562 (in words) (K562 cell-line [2]) | inhibitory activity against Na+/K+-ATPase (in words) (Na+/K+-ATPase [3]) | LC50, cytotoxicity toward K562 (K562 cell-line [4]) [µM] | LC50, cytotoxicity toward A549 (A549 cell-line [5]) [µM] | IC50 (Na+/K+-ATPase [6]) [µM]
gombamide A | exhibited cytotoxicity | exhibited cytotoxicity | inhibitory activity | – | – | –
CC[C@H](C)[C@H](N)C(=O)N[C@H]1CSSC[C@@H](C(=O)O)NC(=O)[C@H]([C@@H](C)CC)NC(=O)[C@@H]2CCCN2C(=O)[C@H](CC(C)C)NC(=O)[C@H](Cc2ccccc2)NC(=O)[C@@H]2CCCN2C(=O)[C@@H]2CCCN2C(=O)[C@H](Cc2ccc(O)cc2)NC(=O)[C@@H]2CCCN2C1=O [Compound 2, chujamide B] (H-ICPYPPFLPIC-OH; disulfide 2-11) | – | – | – | 55.6 | 26.4 | 17.2
CC[C@H](C)[C@H](NC(=O)CN)C(=O)N[C@H]1CSSC[C@@H](C(=O)O)NC(=O)[C@H]([C@@H](C)CC)NC(=O)[C@@H]2CCCN2C(=O)[C@H](CC(C)C)NC(=O)[C@H](Cc2ccccc2)NC(=O)[C@@H]2CCCN2C(=O)[C@@H]2CCCN2C(=O)[C@H](Cc2ccc(O)cc2)NC(=O)[C@@H]2CCCN2C1=O [Compound 1, chujamide A] (H-GICPYPPFLPIC-OH; disulfide 3-12) | – | – | – | 37.0 | 10.1 | –
COc1cccc2c1C(=O)c1c(O)c3c(c(O)c1C2=O)C[C@@](O)(C(=O)CO)C[C@@H]3O[C@H]1C[C@H](N)[C@H](O)[C@H](C)O1 [doxorubicin] | – | – | – | 1.5 | 1.3 | –
